Measured values from patent publication US20230301957A1, “PO[…] ACID ESTER COMPOSITION AND APPLICATION THEREOF” (SINGAO (XUZHOU) BIOTECH CO., LTD, priority 2020, published 2023).

Tested on: influenza virus H1N1
Assay: Hemagglutination test of supernatants of influenza-infected A549 cells
Type: cell-based, influenza virus H1N1 (A549 cells)
Settings: for hemagglutination titer, average values: average of the two inoculation treatments (Protocol 1 and 2); for inhibitory effect on the influenza virus (in words): from average hemagglutination titers, high titer indicates high virus content
Protocol: A total of four samples were prepared in this experiment: • (1) a lauric acid sample: 3.5 mg of lauric acid was dissolved in 0.5 mL of dimethyl sulfoxide, and then diluted with 9.5 mL of cell culture medium to a final concentration of 0.35 mg/mL and a pH value of the sample was 10.1; • (2) an α-monolaurin sample: 4.8 mg of α-monolaurin was dissolved in 0.5 mL of dimethyl sulfoxide, and then diluted with 9.5 mL of cell culture medium to a final concentration of 0.48 mg/mL and a pH value of the sample was 10.3; • (3) a triglycerol monolaurin sample: 7.5 mg of triglycerol monolaurin was diluted with 10 mL of cell culture medium to a final concentration of 0.75 mg/mL and a pH value of the sample was 7.6; and • (4) a triglycerol monolaurin acidic emulsion sample: 50 mg of triglycerol monolaurin acidic emulsion sample was diluted with 10 mL of cell culture medium to a final concentration of 5 mg/mL and a pH value of the sample was 7.5.
According to equivalent lauric acid concentration conversion, lauric acid concentrations in the samples (2) to (4) were all 0.35 mg/mL, which was equal to that in the sample (1).
The A549 cells were cultured in a 24-well plate, after growing to a monolayer, the cells were treated according to the following two protocols: • I. The cell culture medium was removed, the virus was added, the cells were cultured in an incubator with 5% CO2 at 37° C. for 1 h, the virus solution was removed, each prepared sample was added, 12 parallel test wells were set for each group, and the cells were cultured in the incubator with 5% CO2 at 37° C. for 1 h. After the culture, liquids in the cell culture wells were removed, the cells were washed with PBS, added with a cell maintenance medium, and cultured in the incubator with 5% CO2 at 37° C. for 24 h. Meanwhile, a virus positive control group (a cell culture medium mixed with influenza virus 24HAU was added) was set. • II. The cell culture medium was removed, each prepared sample and the virus were added, 12 parallel test wells were set for each group, and the cells were cultured in an incubator with 5% CO2 at 37° C. for 1 h. After the culture, liquids in the cell culture wells were removed, the cells were washed with PBS, added with a cell maintenance medium, and cultured in the incubator with 5% CO2 at 37° C. for 24 h. Meanwhile, a virus positive control group (a cell culture medium mixed with influenza virus 24HAU was added) was set.
Cell culture supernatants respectively obtained by the above 2 treatment methods were used for hemagglutination test, each culture plate was frozen and thawed repeatedly 3 times, a cell solution was collected for extraction of RNA, which was used for qRT-PCR detection of nucleoprotein (NP).

| Molecule | hemagglutination titer, average values | inhibitory effect on the influenza virus (in words) |
| --- | --- | --- |
| CCCCCCCCCCCC(=O)OCC(O)CO (stereo not drawn) [(2), α-monolaurin] | 2.25 | the strongest |
| CCCCCCCCCCCC(=O)O [(1), lauric acid] | 4.75 | weaker compared to the sample (4) |
| triglycerol monolaurin [(3)] | 4.25 | weaker compared to the sample (4) |
